From ChEMBL document CHEMBL1131804, “Synthesis of delta4-beta-D-glucopyranosiduronic acids as mimetics of 2,3-unsaturated sialic acids for sialidase inhibition” (Bioorg Med Chem Lett, 1999)

Columns and labels:
Crassostrea virginica = test: Inhibitory activity against KDN-sialidase from Crassostrea virginica at a concentration of 1 mM
[1] = Inhibitory activity against influenza virus A(N9) sialidase
[2] = Inhibitory activity against Vibrio cholerae sialidase
Clostridium perfringens = test: Inhibitory activity against sialidase from Clostridium perfringens at a concentration of 0.1 mM
influenza virus a = test: Inhibitory activity against influenza virus A(N9) sialidase at a concentration of 0.1 mM
Vibrio cholerae = test: Inhibitory activity against Vibrio cholerae sialidase at a concentration of 0.1 mM
[3] = tested on: Salmonella enterica subsp. enterica serovar Typhimurium; test: Inhibitory activity sialidase from Salmonella Typhimurium at a concentration of 0.1 mM

SMILES	inhibition (Crassostrea virginica)	Ki [1]	Ki [2]	inhibition (Clostridium perfringens)	inhibition (influenza virus a)	inhibition (Vibrio cholerae)	inhibition [3]
CC(=O)N[C@H]1[C@H]([C@H](O)[C@H](O)CO)OC(C(=O)O)=C[C@@H]1O [NEU5AC2EN]	20%	1.3 µM	3.4 µM				
CC(C)OC1OC(C(=O)O)=CC(O)C1O (stereo unspecified)	6%						
O=C(O)C1=CC(O)C(O)C([C@H](O)[C@H](O)CO)O1 (stereo partly specified)	95%						
CC(=O)NC1C(O)C=C(C(=O)O)OC1OC(C)C (stereo unspecified)		2.7 µM	120 µM	24%	100%	25%	24%
